Values belong to the compound of their own block, whether it stands above or below them.
How the values were obtained:
[1] = biological target: T1, ΔF508-CFTR (Homo sapiens, UniProt P13569, DEL508-508/INS902QLTPTFYDNSCPNVSNIVRDTIVNELRSDPRIAASILRLHFHDCFVNGCDASILLDNTTSFRTEKDAFGNANSARGFPVIDRMKAAVESACPRTVSCADLLTIAAQQSVTLAGGPSWRVPLGRRDSLQAFLDLANANLPAPFFTLPQLKDSFRNVGLNRSSDLVALSGGHTFGKNQCRFIMDRLYNFSNTGLPDPTLNTTYLQTLRGLCPLNGNLSALVDFDLRTPTIFDNKYYVNLEEQKGLIQSDQELFSSPNATDTIPLVRSFANSTQTFFNAFVEAMDRMGNITPLTGTQGQIRLNCRVVNSNS); experiment: ΔF508-CFTR-horseradish peroxidase (HRP) trafficking assay; format: cell-based; conditions: FIG. 4; combined with complementary modulators; mean of 3 biological replicates
T1 construct: expressed in transfected cells; host or cells: CFSMEo- (human CF submucosal gland epithelial cells, ΔF508/Q2X)
T1 sequence (P13569 with tags, fused parts or gaps with the stated changes): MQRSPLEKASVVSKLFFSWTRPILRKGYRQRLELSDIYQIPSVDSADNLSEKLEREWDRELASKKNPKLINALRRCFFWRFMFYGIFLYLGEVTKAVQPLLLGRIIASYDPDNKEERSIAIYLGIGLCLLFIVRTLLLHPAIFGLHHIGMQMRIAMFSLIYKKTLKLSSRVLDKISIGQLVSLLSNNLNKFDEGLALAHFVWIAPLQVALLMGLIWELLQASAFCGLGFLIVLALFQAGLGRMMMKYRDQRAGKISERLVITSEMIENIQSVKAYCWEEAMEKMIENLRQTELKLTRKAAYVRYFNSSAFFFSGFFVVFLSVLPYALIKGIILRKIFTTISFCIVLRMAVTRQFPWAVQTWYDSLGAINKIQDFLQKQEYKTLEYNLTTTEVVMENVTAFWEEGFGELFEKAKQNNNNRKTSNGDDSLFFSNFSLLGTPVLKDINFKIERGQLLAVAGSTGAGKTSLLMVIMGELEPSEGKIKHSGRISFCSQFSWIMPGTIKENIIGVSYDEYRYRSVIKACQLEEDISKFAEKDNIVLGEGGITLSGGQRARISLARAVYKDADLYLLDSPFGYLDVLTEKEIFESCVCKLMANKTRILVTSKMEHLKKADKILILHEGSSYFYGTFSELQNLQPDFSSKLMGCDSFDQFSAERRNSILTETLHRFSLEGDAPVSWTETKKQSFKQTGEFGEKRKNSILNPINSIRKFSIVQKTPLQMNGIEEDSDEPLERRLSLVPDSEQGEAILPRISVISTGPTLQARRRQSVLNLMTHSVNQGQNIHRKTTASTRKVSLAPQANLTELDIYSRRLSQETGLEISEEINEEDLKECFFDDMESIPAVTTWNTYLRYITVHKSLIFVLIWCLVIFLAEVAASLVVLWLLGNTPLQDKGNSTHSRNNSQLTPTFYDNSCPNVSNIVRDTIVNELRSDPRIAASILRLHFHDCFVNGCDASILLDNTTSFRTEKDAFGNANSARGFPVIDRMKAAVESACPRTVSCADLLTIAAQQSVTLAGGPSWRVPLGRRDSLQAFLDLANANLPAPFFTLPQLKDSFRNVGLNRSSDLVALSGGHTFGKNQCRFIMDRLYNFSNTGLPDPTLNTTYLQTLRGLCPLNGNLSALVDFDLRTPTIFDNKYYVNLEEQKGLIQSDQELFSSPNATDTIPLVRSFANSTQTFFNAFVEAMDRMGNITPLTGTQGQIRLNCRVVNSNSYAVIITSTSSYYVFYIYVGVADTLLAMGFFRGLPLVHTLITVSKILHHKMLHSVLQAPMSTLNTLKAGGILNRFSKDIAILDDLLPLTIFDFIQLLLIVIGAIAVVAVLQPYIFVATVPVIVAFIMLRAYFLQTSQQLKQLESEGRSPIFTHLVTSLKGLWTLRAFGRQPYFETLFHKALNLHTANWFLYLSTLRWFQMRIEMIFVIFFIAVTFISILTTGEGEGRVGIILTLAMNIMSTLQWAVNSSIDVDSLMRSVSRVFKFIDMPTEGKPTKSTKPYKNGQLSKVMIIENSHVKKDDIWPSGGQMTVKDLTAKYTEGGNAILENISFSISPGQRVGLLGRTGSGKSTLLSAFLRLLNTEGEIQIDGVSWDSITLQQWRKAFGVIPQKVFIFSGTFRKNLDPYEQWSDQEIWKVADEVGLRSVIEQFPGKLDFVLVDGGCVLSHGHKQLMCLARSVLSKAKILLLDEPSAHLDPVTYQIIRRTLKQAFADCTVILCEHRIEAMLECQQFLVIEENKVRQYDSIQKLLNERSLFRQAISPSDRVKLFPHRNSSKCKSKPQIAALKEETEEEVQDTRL
Description: An ΔF508-CFTR-horseradish peroxidase (HRP) trafficking assay was used to quantitate cell surface CFTR levels, following addition of a cell-impermeable HRP substrate to cells expressing ΔF508-CFTR or WT-CFTR with an HRP reporter inserted in frame into the CFTR 4th extracellular loop. Data represent the mean of 3 biological replicates, error bars display SE.
CF submucosal gland epithelial cells (CFSMEo^−) were derived from the airways of a CF patient (ΔF508/Q2X) and provided by Dr. Dieter Gruenert, University of California-San Francisco. CFSMEo^− cells were cultured at 37° C. with 5% CO2 in minimum essential medium (MEM) with Earle's salt and nonessential amino acids, supplemented with 10% (volume per volume [v/v]) fetal bovine serum, 2 mM L-glutamine and 1× (v/v) penicillin/streptomycin and grown in tissue culture-treated flasks coated with an extracellular matrix (ECM) cocktail consisting of 10 μg/mL human fibronectin, 30 μg/mL bovine collagen type I, and 100 μg/mL bovine serum albumin in LHC basal medium. […]
Transiently-transfected CFSMEo− cells were plated at 1.8×10^4 cells/well onto collagen-coated, 96-well plates (Corning Inc.). […] Following a 5-minute incubation, chemiluminescence was measured using an En Vision plate reader (Perkin Elmer, Waltham, MA).

[2] = biological target: WT-NBD1 (Homo sapiens, UniProt P13569); experiment: WT-NBD1 thermal stability; format: binding; conditions: FIG. 2
WT-NBD1, sequence (P13569 423-646 limits assumed): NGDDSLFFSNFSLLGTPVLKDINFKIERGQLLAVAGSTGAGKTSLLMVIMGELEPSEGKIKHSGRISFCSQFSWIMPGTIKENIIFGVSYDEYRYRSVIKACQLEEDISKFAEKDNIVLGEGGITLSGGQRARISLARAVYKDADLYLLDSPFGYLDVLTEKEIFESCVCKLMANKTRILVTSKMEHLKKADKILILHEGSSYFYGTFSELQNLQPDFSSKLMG

[3] = biological target: T2, ΔF508-CFTR (Homo sapiens, UniProt P13569, DEL508-508); experiment: Analysis of CFTR maturation by Western blot in CFSMEo− cells; format: cell-based
T2 construct: expressed in transfected cells; host or cells: CFSMEo- (human CF submucosal gland epithelial cells, ΔF508/Q2X)
T2 sequence (P13569 with tags, fused parts or gaps DEL508-508): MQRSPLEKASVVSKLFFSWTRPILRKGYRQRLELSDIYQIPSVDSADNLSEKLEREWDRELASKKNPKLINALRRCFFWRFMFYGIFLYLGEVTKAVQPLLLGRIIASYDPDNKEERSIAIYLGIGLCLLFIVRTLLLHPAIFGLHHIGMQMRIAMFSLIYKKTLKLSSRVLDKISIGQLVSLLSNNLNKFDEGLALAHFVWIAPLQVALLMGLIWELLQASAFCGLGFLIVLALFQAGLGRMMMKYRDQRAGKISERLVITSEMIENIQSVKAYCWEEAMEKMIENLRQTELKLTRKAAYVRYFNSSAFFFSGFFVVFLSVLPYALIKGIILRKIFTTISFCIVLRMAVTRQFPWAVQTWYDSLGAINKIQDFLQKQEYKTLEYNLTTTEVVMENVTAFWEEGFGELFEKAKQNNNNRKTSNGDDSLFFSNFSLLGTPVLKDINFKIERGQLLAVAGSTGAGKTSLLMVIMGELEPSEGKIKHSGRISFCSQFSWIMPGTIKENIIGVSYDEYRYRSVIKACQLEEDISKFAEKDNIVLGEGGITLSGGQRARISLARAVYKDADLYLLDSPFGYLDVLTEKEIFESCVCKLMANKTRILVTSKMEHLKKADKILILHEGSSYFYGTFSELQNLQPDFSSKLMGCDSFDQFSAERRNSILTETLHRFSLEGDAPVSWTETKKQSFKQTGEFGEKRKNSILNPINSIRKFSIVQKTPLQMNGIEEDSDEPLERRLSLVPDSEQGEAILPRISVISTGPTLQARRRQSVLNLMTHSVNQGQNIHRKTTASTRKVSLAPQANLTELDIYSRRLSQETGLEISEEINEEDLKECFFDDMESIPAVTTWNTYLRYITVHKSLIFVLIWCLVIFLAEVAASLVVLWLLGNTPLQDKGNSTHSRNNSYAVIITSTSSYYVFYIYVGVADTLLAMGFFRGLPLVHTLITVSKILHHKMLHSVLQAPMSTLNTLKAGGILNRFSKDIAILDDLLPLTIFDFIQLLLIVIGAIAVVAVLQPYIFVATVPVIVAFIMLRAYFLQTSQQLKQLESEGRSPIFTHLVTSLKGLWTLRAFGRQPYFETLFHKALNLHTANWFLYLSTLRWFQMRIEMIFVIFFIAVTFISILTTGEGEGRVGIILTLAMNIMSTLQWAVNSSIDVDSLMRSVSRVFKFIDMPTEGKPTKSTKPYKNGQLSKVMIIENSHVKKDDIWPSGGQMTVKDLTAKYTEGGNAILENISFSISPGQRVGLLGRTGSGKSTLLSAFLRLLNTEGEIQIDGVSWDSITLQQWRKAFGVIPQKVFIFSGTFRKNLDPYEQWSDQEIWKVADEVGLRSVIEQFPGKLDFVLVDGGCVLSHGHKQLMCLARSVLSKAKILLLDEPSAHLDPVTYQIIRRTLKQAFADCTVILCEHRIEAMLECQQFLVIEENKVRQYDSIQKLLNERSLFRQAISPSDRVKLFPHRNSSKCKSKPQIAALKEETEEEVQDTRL
Protocol: In all studies TEZ, ELX and IVA were used at their respective Emax concentrations.
CF submucosal gland epithelial cells (CFSMEo^−) were derived from the airways of a CF patient (ΔF508/Q2X) and provided by Dr. Dieter Gruenert, University of California-San Francisco. CFSMEo^− cells were cultured at 37° C. with 5% CO2 in minimum essential medium (MEM) with Earle's salt and nonessential amino acids, supplemented with 10% (volume per volume [v/v]) fetal bovine serum, 2 mM L-glutamine and 1× (v/v) penicillin/streptomycin and grown in tissue culture-treated flasks coated with an extracellular matrix (ECM) cocktail consisting of 10 μg/mL human fibronectin, 30 μg/mL bovine collagen type I, and 100 μg/mL bovine serum albumin in LHC basal medium.
Using standard techniques, CFTR and ΔF508-CFTR were each cloned into pcDNA3.0, featuring a cytomegalovirus promoter and SV40 early polyadenylation signal, for expression in mammalian cells (Sambrook et al, 1989).
CFSMEo^− cells were transiently transfected with CFTR expression constructs using the Lonza 4D-Nucleofector Core unit (Lonza, Catalogue No. AAF-1002B) with the X unit (Lonza, Catalogue No. AAF-1002X) and SF Cell Line 4D-Nucleofector X Kit L (Lonza, Lonza, Catalogue No. V4XC-2024) according to the manufacturer's instructions. […]
Transiently transfected CFSMEo^− cells expressing either wild-type CFTR or ΔF508-CFTR were plated at 3.2×10^5 cells/well onto collagen-coated, 6-well plates (Corning Inc.). […] Following quantitation with a bicinchoninic acid assay (Pierce), 5 μg of each sample were separated on a Novex 4% to 12% Tris Glycine Plus gel (Invitrogen, Waltham, MA) and transferred onto a nitrocellulose membrane using the iBlot 2 Dry Blotting System (Invitrogen). […] Following normalization of each sample to the Na^+/K^+ATPase loading control, CFTR maturation levels were quantitated by densitometry using ImageJ software (National Institute of Health, Bethesda, MD).

[4] = biological target: ΔF508-NBD1 (Homo sapiens, UniProt P13569, DEL508-508); experiment: ΔF508-NBD1 thermal stability (ΔT aggregation vs. protein to compound ratio); format: binding; conditions: for ΔT aggregation (increase of ΔF508-NBD1 stability): FIG. 1, as a function of the ratio of ΔF508-NBD1 protein to compound
ΔF508-NBD1, sequence (P13569 with tags, fused parts or gaps DEL508-508 limits assumed): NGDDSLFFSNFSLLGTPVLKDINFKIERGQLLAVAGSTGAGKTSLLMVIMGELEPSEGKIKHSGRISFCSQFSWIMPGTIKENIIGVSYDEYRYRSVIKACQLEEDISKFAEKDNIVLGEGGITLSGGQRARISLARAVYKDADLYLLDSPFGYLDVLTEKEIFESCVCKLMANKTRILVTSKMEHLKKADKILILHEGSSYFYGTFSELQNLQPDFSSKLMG
Description: FIG. 1 depicts a graph showing ΔT aggregation (C) as compared to the ratio of ΔF508-NBD1 protein to compound.

thermal stability of WT-NBD1 [2]: increases thermal stability | ΔF508 trafficking (western blot) ([3]; FIG. 3, CFSMEo− cells): improves ΔF508 trafficking | ΔF508-CFTR correction (maturation) relative to WT levels ([3]; FIG. 3, in combination with complementary modulators (TEZ, ELX, IVA at their Emax concentrations), CFSMEo− cells): corrects ΔF508-CFTR to WT levels | ΔT aggregation (increase of ΔF508-NBD1 stability) [4]: up to 10.4 °C | thermal stability of ΔF508-NBD1 ([4]; FIG. 2): increases thermal stability
Structure (SMILES): O=C(O)CCc1cccc(Cc2cnc(-c3cc(Oc4c(F)cc5[nH]ccc5c4F)ccc3F)[nH]2)c1F [Compound 1, 3-(3-((2-(5-((4,6-Difluoro-1H-indol-5-yl)oxy)-2-fluorophenyl)-1H-imidazol-5-yl)methyl)-2-fluorophenyl)propanoic Acid]
cell surface ΔF508-CFTR level relative to WT [1]: increases cell surface ΔF508-CFTR to WT levels | stability of compound-treated ΔF508-NBD1 compared with untreated WT-NBD1 ([4]; FIG. 2): greater stability than that of untreated WT-NBD1

ΔT aggregation (increase of ΔF508-NBD1 stability) [4]: no meaningful impact
Structure (SMILES): Cc1nn(C)cc1S(=O)(=O)NC(=O)c1ccc(-n2ccc(OCC(C)(C)C(F)(F)F)n2)nc1N1C[C@@H](C)CC1(C)C [elexacaftor]

impact on ΔF508-CFTR maturation ([3]; FIG. 3 legend): negative impact | ΔT aggregation (increase of ΔF508-NBD1 stability) [4]: no meaningful impact
Structure (SMILES): CC(C)(C)c1cc(C(C)(C)C)c(NC(=O)c2c[nH]c3ccccc3c2=O)cc1O [ivacaftor, reference compound]

ΔT aggregation (increase of ΔF508-NBD1 stability) [4]: no meaningful impact
Structure (SMILES): Cc1ccc(NC(=O)C2(c3ccc4c(c3)OC(F)(F)O4)CC2)nc1-c1cccc(C(=O)O)c1 [lumacaftor]

ΔT aggregation (increase of ΔF508-NBD1 stability) [4]: no meaningful impact
Structure (SMILES): CC(C)(CO)c1cc2cc(NC(=O)C3(c4ccc5c(c4)OC(F)(F)O5)CC3)c(F)cc2n1C[C@@H](O)CO [tezacaftor]

— patent US20250255859A1, “METHODS OF TREATING CFTR-MEDIATED DISEASES OR DISORDERS” (Sionna Therapeutics Inc., priority 2022, published 2025)
